{"source": "patent US7858650B2", "about": "“Medicinal composition for inhalation” (Ono Pharmaceutical Co., Ltd., priority 2004, dated 2010)", "format_in_all_cases": "in vivo", "key": {"[1]": {"tested_on": "histamine-induced airway contractile response", "test": "Inhibitory activity on histamine-induced airway contractile response and hypotensive activity, intravenous or inhalation administration", "settings": "anesthetized guinea pig, histamine 10 μg/kg i.v.; inhalation (5 minutes, nebulizer) versus intravenous administration; FIG. 1", "protocol": "(1) Inhibitory Activity on Histamine-Induced Airway Contractile Response and Hypotensive Activity of Intravenous Administration or Inhalation Administration in Guinea Pig\nA guinea pig anesthetized with sodium pentobarbital (75 mg/kg, i.p.) was treated with gallamine (10 mg/kg, i.v.), and an experiment was carried out under artificial respiration. As an airway contraction inducing substance, histamine (10 μg/kg, i.v.) was used, and the airway contractile response was determined by the Konzett & Roessler method (Konzett, H., Roessler, R. Versuchsanordnung zu untersuchungen ander Bronchial-muskulatur. Arch Exp Pathol Pharmacol 1940; 195:71-74). Additionally, the blood pressure was also measured at the same time. A test substance was administered intravenously or by inhalation (the test substance or a physiological saline solution was atomized using an ultrasonic nebulizer and inhaled directly into the trachea for 5 minutes using an artificial respirator). An inhibition ratio of airway contraction (%) was calculated by taking the airway contraction induced by histamine before administration of the test substance or in a group administered with a physiological saline solution as 0% inhibition. The amount of blood pressure reduction (mmHg) was expressed as the amount of diastolic blood pressure reduction. […] From this, it was shown that the pharmaceutical composition for inhalation of the present invention has an inhibitory effect on airway contraction and its hypotensive effect is small."}, "[2]": {"tested_on": "methacholine-induced airway contractile response", "test": "Effect of intratracheal administration on methacholine-induced airway contractile response", "settings": "guinea pig, methacholine 10 μg/kg i.v.", "protocol": "(2) Effect of Compound of the Present Invention by Intratracheal Administration on Methacholine-Induced Airway Contractile Response in Guinea Pig\nA test substance was intratracheally administered to a guinea pig anesthetized with GOI (laughing gas:oxygen=3:1, 3% isoflurane) using a tube for intratracheal administration. After a certain period of time, the guinea pig was anesthetized with sodium pentobarbital (50 mg/kg, i.p.) and treated with gallamine (10 mg/kg, i.v.). Then, the resulting airway contractile response was determined under artificial respiration. As an airway contraction inducing substance, methacholine (10 μg/kg, i.v.) was used, and the airway contractile response was determined by the Konzett & Roessler method. A ratio of airway contraction (% of maximum) was calculated by taking the airway response obtained by closing a three-way stopcock attached to an upper part of a cannula inserted into the tracheal tube of the guinea pig as 100%."}, "[3]": {"test": "Hypotensive effect of a sustained prodrug of EP2 agonist (blood pressure after intratracheal administration)", "settings": "guinea pig, blood pressure measured for 12.5 minutes after administration, FIGS. 6 and 8", "protocol": "(§1) (3) Bronchodilator Effect and Hypotensive Effect of a Sustained Prodrug of EP2 Agonist\n(§2) A guinea pig anesthetized with sodium pentobarbital (50 mg/kg, i.p.) was treated with gallamine (10 mg/kg, i.v.), and an experiment was carried out under artificial respiration. As an airway contraction inducing substance, methacholine (10 μg/kg, i.v.) was used, and the airway contractile response was determined by the Konzett & Roessler method. Compound B was dissolved in an equimolar amount of sodium hydroxide and diluted with a physiological saline solution. Compound F was suspended in a physiological saline solution containing 2% ethanol and 10% Tween 80 to prepare a test substance. The test substance was intratracheally administered using a tube for intratracheal administration. After the administration of the test substance, the blood pressure and the airway contractile response were measured for 12.5 minutes and 3 hours, respectively. A ratio of airway contraction (%) was calculated by taking the airway response obtained by closing a three-way stopcock attached to an upper part of a cannula inserted into the tracheal tube of the guinea pig as 100% contraction. The amount of blood pressure reduction (mmHg) was expressed based on the blood pressure before administration of the test substance."}, "[4]": {"tested_on": "methacholine-induced airway contractile response", "test": "Bronchodilator effect of a sustained prodrug of EP2 agonist (methacholine-induced airway contraction, intratracheal)", "settings": "guinea pig, intratracheal administration, methacholine 10 μg/kg i.v., airway contractile response measured for 3 hours; FIGS. 7 and 9", "protocol": "as §1, §2"}}}
{"molecule": "CCC1([C@@H](O)C/C=C/[C@H]2CCC(=O)N2CCSc2nc(C(=O)O)cs2)CCC1", "note": "[Compound A, 2-[(2-{(2R)-2-[(1E,4S)-4-(1-ethylcyclobutyl)-4-hydroxybut-1-enyl]-5-oxopyrrolidin-1-yl}ethyl)sulfanyl]-1,3-thiazole-4-carboxylic acid]", "values": [{"measurement": "dissociation between the inhibitory effect on airway contraction and the hypotensive effect", "setting": "[1]", "value": "became larger by inhalation administration than by intravenous administration"}]}
{"molecule": "O=C(O)c1csc(SCCN2C(=O)CC[C@@H]2COc2cccc(C(F)(F)F)c2Cl)n1", "note": "[Compound C, 2-{[2-((2R)-2-{[2-chloro-3-(trifluoromethyl)phenoxy]methyl}-5-oxopyrrolidin-1-yl)ethyl]sulfanyl}-1,3-thiazole-4-carboxylic acid]", "values": [{"measurement": "dissociation between the inhibitory effect on airway contraction and the hypotensive effect", "setting": "[1]", "value": "became larger by inhalation administration than by intravenous administration"}]}
{"molecule": "CCCCOC(=O)c1csc(SCCN2C(=O)CC[C@@H]2COc2cc(Cl)cc(Cl)c2)n1", "note": "[Compound E, butyl 2-[(2-{(2R)-2-[(3,5-dichlorophenoxy)methyl]-5-oxopyrrolidin-1-yl}ethyl)thio]-1,3-thiazole-4-carboxylate]", "values": [{"measurement": "duration of activity (bronchodilator effect), comparison", "setting": "[2]; FIGS. 2 to 5", "value": "more prolonged duration of activity compared with Compound B"}]}
{"molecule": "O=C(OCCCCCCCCCCc1ccccc1)c1csc(SCCN2C(=O)CC[C@@H]2COc2cc(Cl)cc(Cl)c2)n1", "note": "[Compound G, 10-phenyldecyl 2-[(2-{(2R)-2-[(3,5-dichlorophenoxy)methyl]-5-oxopyrrolidin-1-yl}ethyl)sulfanyl]-1,3-thiazole-4-carboxylate]", "values": [{"measurement": "duration of activity (bronchodilator effect), comparison", "setting": "[2]; FIGS. 2 to 5", "value": "more prolonged duration of activity compared with Compound F"}]}
{"molecule": "O=C(O)c1csc(SCCN2C(=O)CC[C@@H]2COc2cc(Cl)cc(Cl)c2)n1", "note": "[Compound B, 2-[(2-{(2R)-2-[(3,5-dichlorophenoxy)methyl]-5-oxopyrrolidin-1-yl}ethyl)thio]-1,3-thiazole-4-carboxylic acid]", "values": [{"measurement": "time after administration at which the bronchodilator effect was lost", "setting": "[2]; FIG. 2", "value": "around 3 hours"}, {"measurement": "bronchodilator effect", "setting": "[2]; FIGS. 2 to 5", "value": "has a bronchodilator effect"}, {"measurement": "dissociation between the inhibitory effect on airway contraction and the hypotensive effect", "setting": "[1]", "value": "became larger by inhalation administration than by intravenous administration"}]}
{"molecule": "O=C(O)c1csc(SCCN2C(=O)CC[C@@H]2COc2cccc(OC(F)(F)F)c2)n1", "note": "[Compound D, 2-{[2-((5R)-2-oxo-5-{[3-(trifluoromethoxy)phenoxy]methyl}pyrrolidin-1-yl)ethyl]sulfanyl}-1,3-thiazole-4-carboxylic acid]", "values": [{"measurement": "dissociation between the inhibitory effect on airway contraction and the hypotensive effect", "setting": "[1]", "value": "became larger by inhalation administration than by intravenous administration"}]}
{"molecule": "CCCCCCCCCCCOC(=O)c1csc(SCCN2C(=O)CC[C@@H]2COc2cc(Cl)cc(Cl)c2)n1", "note": "[Compound F, undecyl 2-[(2-{(2R)-2-[(3,5-dichlorophenoxy)methyl]-5-oxopyrrolidin-1-yl}ethyl)sulfanyl]-1,3-thiazole-4-carboxylate]", "values": [{"measurement": "duration of activity (bronchodilator effect), comparison", "setting": "[2]; FIGS. 2 to 5", "value": "more prolonged duration of activity compared with Compound F"}, {"measurement": "change of blood pressure (hypotensive effect)", "setting": "[3]", "value": "did not change the blood pressure"}, {"measurement": "duration of bronchodilator activity, comparison", "setting": "[4]", "value": "prolonged duration of bronchodilator activity compared with Compound B"}]}
